Measured values published in patent US9248109B2, “High penetration prodrug compositions of peptides and peptide-related compounds” (priority 2009, dated 2016).
Where a name gives a salt, the structure may show the parent alone. Non-standard residues stand in square brackets, D forms with d. Residues, ends and D or L forms follow the SMILES beside them. *: point of attachment. Arg(NO2) = N=C(NCCC[C@H](N)C(=O)O)N[N+](=O)[O-]; X1 = CCCCO*

What was measured:
[1] = system: young Sprague Dawley rats; test: Anti-obese activity, transdermal, young female Sprague Dawley rats (second experiment); type: in vivo, rat; conditions: for effect on overweight of young rats (in words): 10, 1 or 0.3 mg/kg transdermal twice per day for 30 days; for Food intake (per day & per rat) / Weight (g) (Day 30) / Weight (g) (Day 1): young rats; for Weight (g) (Day 1): baseline
Experimental: (§1) In a second experiment, 40 young female Sprague Dawley (SD) rats (180-225 g) were divided into 4 groups. In group A, 0.2 ml of water was administered to the back of rat (n=10) twice per day for 30 days. In Groups B, C, and D, 10 mg/kg, 1 mg/kg, or 0.3 mg/kg of H-Val-Pro-Gly-Pro-Arg(NO2)—OCH(CH3)2.HCl(SEQ ID NO: 197) in 0.2 ml of water were administered transdermally to the backs of rats (n=10) twice per day for 30 days respectively.
as §1, with “(180-230” for “(180-225”, “H-Val-Pro-Gly-Pro-Arg(diAc)-OCH2CH2CH2CH3.HCl(SEQ” for “H-Val-Pro-Gly-Pro-Arg(NO2)—OCH(CH3)2.HCl(SEQ”, “198)” for “197)”, “days.” for “days respectively.”
as §1, with “rats (182-223” for “rats (180-225”, “of H-Ala-Pro-Gly-Pro-Arg(NO2)—OCH2CH2CH2CH3.HCl(SEQ” for “of H-Val-Pro-Gly-Pro-Arg(NO2)—OCH(CH3)2.HCl(SEQ”, “NO: 199)” for “NO: 197)”, “water was” for “water were”
as §1, with “(185-220” for “(180-225”, “H-Val-Pro-Asp(OEt)-Pro-Arg(NO2)-OCH2CH2CH2CH3.HCl(SEQ” for “H-Val-Pro-Gly-Pro-Arg(NO2)—OCH(CH3)2.HCl(SEQ”, “200)” for “197)”, “days.” for “days respectively.”

[2] = system: obese mice (SLAC/DB/DB); test: Anti-obese activity, transdermal, obese female DB/DB mice (third experiment); type: in vivo, mouse; conditions: for Weight (g) (Day 1) / Blood Glucose Levels (day 1) (mg/dL, no fasting): baseline; for effect on body weights and blood glucose levels of obese mice (in words): 15, 1.5 and 0.5 mg/kg transdermal twice per day for 30 days
Experimental: (§2) In a third experiment, 40 obese female DB/DB mice (SLAC/DB/DB mice, 16 weeks old, 55-60 g) were divided into 4 groups. In group A, 0.1 ml of water was administered to the back of mouse (n=10) twice per day for 30 days. In Groups B, C, and D, 15 mg/kg, 1.5 mg/kg, and 0.5 mg/kg of H-Val-Pro-Gly-Pro-Arg(NO2)-OCH(CH3)2.HCl(SEQ ID NO: 197) in 0.1 ml of water was administered transdermally to the back of mouse (n=10) twice per day for 30 days respectively.
as §2, with “(SLAC/DB/DB) mice (16” for “(SLAC/DB/DB mice, 16”, “H-Val-Pro-Gly-Pro-Arg(diAc)-OCH2CH2CH2CH3.HCl(SEQ” for “H-Val-Pro-Gly-Pro-Arg(NO2)-OCH(CH3)2.HCl(SEQ”, “198)” for “197)”
as §2, with “(SLAC/DB/DB) mice (16” for “(SLAC/DB/DB mice, 16”, “53-61” for “55-60”, “H-Ala-Pro-Gly-Pro-Arg(NO2)—OCH2CH2CH2CH3.HCl(SEQ” for “H-Val-Pro-Gly-Pro-Arg(NO2)-OCH(CH3)2.HCl(SEQ”, “199)” for “197)”
as §2, with “(SLAC/DB/DB) mice (16” for “(SLAC/DB/DB mice, 16”, “53-61” for “55-60”, “H-Val-Pro-Asp(OEt)-Pro-Arg(NO2)-OCH2CH2CH2CH3.HCl(SEQ” for “H-Val-Pro-Gly-Pro-Arg(NO2)-OCH(CH3)2.HCl(SEQ”, “200)” for “197)”

[3] = 0.3 mg/kg transdermal twice per day for 30 days
[4] = 0.3 mg/kg transdermal twice per day
[5] = 1 mg/kg transdermal twice per day for 30 days
[6] = 1 mg/kg transdermal twice per day
[7] = 10 mg/kg transdermal twice per day for 30 days
[8] = 10 mg/kg transdermal twice per day
[9] = 0.5 mg/kg transdermal twice per day for 30 days
[10] = 0.5 mg/kg transdermal twice per day
[11] = 1.5 mg/kg transdermal twice per day for 30 days
[12] = 1.5 mg/kg transdermal twice per day
[13] = 15 mg/kg transdermal twice per day for 30 days
[14] = 15 mg/kg transdermal twice per day

Compound	effect on overweight of young rats (in words) [1]	Food intake (per day & per rat) [1, 3]	Weight (g) (Day 30) [1, 3]	Weight (g) (Day 1) [1, 4]	Food intake (per day & per rat) [1, 5]	Weight (g) (Day 30) [1, 5]	Weight (g) (Day 1) [1, 6]	Food intake (per day & per rat) [1, 7]	Weight (g) (Day 30) [1, 7]	Weight (g) (Day 1) [1, 8]	Weight (g) (Day 30) [2, 9]	Blood Glucose Levels (day 30) (mg/dL, no fasting) [2, 9] [mg/dL]	Weight (g) (Day 1) [2, 10]	Blood Glucose Levels (day 1) (mg/dL, no fasting) [2, 10] [mg/dL]	Weight (g) (Day 30) [2, 11]	Blood Glucose Levels (day 30) (mg/dL, no fasting) [2, 11] [mg/dL]	Weight (g) (Day 1) [2, 12]	Blood Glucose Levels (day 1) (mg/dL, no fasting) [2, 12] [mg/dL]	Weight (g) (Day 30) [2, 13]	Blood Glucose Levels (day 30) (mg/dL, no fasting) [2, 13] [mg/dL]	further results
CCCCOC(=O)[C@H](CCCNC(=N)N[N+](=O)[O-])NC(=O)[C@@H]1CCCN1C(=O)CNC(=O)[C@@H]1CCCN1C(=O)[C@H](C)N [H-Ala-Pro-Gly-Pro-Arg(NO2)—OCH2CH2CH2CH3.HCl] (HELM PEPTIDE1{A.P.G.P.[N=C(NCCC[C@H](N[*:1])C(=O)[*:2])N[N+](=O)[O-]].[CCCCO[*:1]]}$$$$V2.0)	controlled overweight of rats effectively	21.3 ± 2.2	326.2 ± 4.8	194.1 ± 4.5	20.3 ± 2.7	321.7 ± 4.0	192.6 ± 4.1	19.5 ± 2.3	305.4 ± 4.7	193.7 ± 4.2	54.7 ± 2.7	159.4 ± 24.4	58.4 ± 2.9	197.6 ± 28.2	53.3 ± 3.2	148.4 ± 16.4	57.1 ± 2.8	199.4 ± 23.7	51.9 ± 2.7	139.5 ± 15.9	Weight (g) (Day 1) [2, 14]: 57.2 ± 2.2 g; Blood Glucose Levels (day 1) (mg/dL, no fasting) [2, 14]: 202.4 ± 21.4 mg/dL; effect on body weights and blood glucose levels of obese mice (in words) [2]: reduced body weights and blood glucose levels of obese mice effectively
CCCCOC(=O)[C@H](CCCNC(=N)N[N+](=O)[O-])NC(=O)[C@@H]1CCCN1C(=O)[C@H](CC(=O)OCC)NC(=O)[C@@H]1CCCN1C(=O)[C@@H](N)C(C)C [H-Val-Pro-Asp(OEt)-Pro-Arg(NO2)—OCH2CH2CH2CH3.HCl] (H-VPD(OEt)P[Arg(NO2)]-X1)	controlled overweight of rats effectively	22.7 ± 2.9	336.6 ± 5.8	192.1 ± 4.6	21.3 ± 2.1	325.4 ± 4.9	193.2 ± 4.7	20.4 ± 2.7	315.4 ± 6.7	191.2 ± 5.2	56.7 ± 2.8	171.8 ± 28.4	58.7 ± 3.3	199.6 ± 31.5	54.3 ± 2.9	152.4 ± 26.8	58.8 ± 3.1	203.4 ± 25.8	52.4 ± 3.4	145.4 ± 25.7	Weight (g) (Day 1) [2, 14]: 57.9 ± 3.8 g; Blood Glucose Levels (day 1) (mg/dL, no fasting) [2, 14]: 203.4 ± 27.4 mg/dL; effect on body weights and blood glucose levels of obese mice (in words) [2]: reduced body weights and blood glucose levels of obese mice effectively
CC(C)OC(=O)[C@H](CCCNC(=N)N[N+](=O)[O-])NC(=O)[C@@H]1CCCN1C(=O)CNC(=O)[C@@H]1CCCN1C(=O)[C@@H](N)C(C)C [H-Val-Pro-Gly-Pro-Arg(NO2)-OCH(CH3)2•HCl, H-Val-Pro-Gly-Pro-Arg(NO2)—OCH(CH3)2.HCl] (HELM PEPTIDE1{V.P.G.P.[N=C(NCCC[C@H](N[*:1])C(=O)[*:2])N[N+](=O)[O-]].[CC(C)O[*:1]]}$$$$V2.0)	controlled overweight of young rats effectively	21.8 ± 2.7	327.2 ± 3.8	195.1 ± 5.5	20.1 ± 2.8	323.1 ± 4.5	191.6 ± 4.7	19.8 ± 3.3	307.4 ± 5.7	192.7 ± 6.2	54.2 ± 2.9	153.4 ± 26.4	56.2 ± 2.7	199.7 ± 26.8	52.3 ± 1.9	142.4 ± 18.7	57.2 ± 2.1	201.4 ± 23.1	52.1 ± 2.2	137.4 ± 25.2	Weight (g) (Day 1) [2, 14]: 57.7 ± 1.6 g; Blood Glucose Levels (day 1) (mg/dL, no fasting) [2, 14]: 206.4 ± 21.8 mg/dL; effect on body weights and blood glucose levels of obese mice (in words) [2]: reduced body weights and blood glucose levels of obese mice effectively
H-Val-Pro-Gly-Pro-Arg(diAc)-OCH2CH2CH2CH3.HCl	controlled overweight of young rats effectively	23.7 ± 2.9	346.2 ± 4.8	191.1 ± 4.8	22.1 ± 2.8	334.1 ± 4.9	190.6 ± 5.7	20.8 ± 2.8	317.4 ± 6.4	191.7 ± 4.6	59.3 ± 3.2	179.4 ± 21.1	57.9 ± 2.7	196.9 ± 29.8	58.3 ± 2.9	166.4 ± 20.8	57.6 ± 3.8	195.4 ± 36.7	54.7 ± 3.8	152.4 ± 17.9	Weight (g) (Day 1) [2, 14]: 56.7 ± 2.7 g; Blood Glucose Levels (day 1) (mg/dL, no fasting) [2, 14]: 201.5 ± 24.6 mg/dL; effect on body weights and blood glucose levels of obese mice (in words) [2]: reduced body weights and blood glucose levels of obese mice effectively
